Assay results from paper PMC4744546 (Pharmaceutical research, 2015).
Where two headings read alike, the source gives them in different places.

Columns and labels:
[1] = type: in vivo, FVB wild-type mice
[2] = Pharmacokinetic study of oral resveratrol with or without curcumin in Bcrp1; type: in vivo, Bcrp1 (−/−) mice (FVB background); settings: for Cmax / Tmax / half-life: FVB, mouse, whole blood, po, 20 mg/kg, oral resveratrol 20mg/kg; for Cmax: blood
[3] = test system: colon cancer cell lines; settings: ref [18]; cited from earlier work
[4] = test system: human MRP2-overexpressing MDCK II-UGT1A1 cells; assay: Effect of curcumin on fmet of resveratrol conjugates in MDCK II cells; type: cell-based; settings: 4 h
[5] = molecular target: human MRP2 (Homo sapiens, UniProt Q92887); assay: Effect of curcumin on MRP2-mediated efflux; type: cell-based; settings: MRP2-overexpressing MDCK II-UGT1A1 cells
[6] = molecular target: T1, BCRP (Homo sapiens, UniProt Q9UNQ0); assay: Effect of curcumin on BCRP-mediated efflux; type: cell-based; settings: UGT1A9-overexpressing HeLa cells
T1 sequence (Q9UNQ0 1-655): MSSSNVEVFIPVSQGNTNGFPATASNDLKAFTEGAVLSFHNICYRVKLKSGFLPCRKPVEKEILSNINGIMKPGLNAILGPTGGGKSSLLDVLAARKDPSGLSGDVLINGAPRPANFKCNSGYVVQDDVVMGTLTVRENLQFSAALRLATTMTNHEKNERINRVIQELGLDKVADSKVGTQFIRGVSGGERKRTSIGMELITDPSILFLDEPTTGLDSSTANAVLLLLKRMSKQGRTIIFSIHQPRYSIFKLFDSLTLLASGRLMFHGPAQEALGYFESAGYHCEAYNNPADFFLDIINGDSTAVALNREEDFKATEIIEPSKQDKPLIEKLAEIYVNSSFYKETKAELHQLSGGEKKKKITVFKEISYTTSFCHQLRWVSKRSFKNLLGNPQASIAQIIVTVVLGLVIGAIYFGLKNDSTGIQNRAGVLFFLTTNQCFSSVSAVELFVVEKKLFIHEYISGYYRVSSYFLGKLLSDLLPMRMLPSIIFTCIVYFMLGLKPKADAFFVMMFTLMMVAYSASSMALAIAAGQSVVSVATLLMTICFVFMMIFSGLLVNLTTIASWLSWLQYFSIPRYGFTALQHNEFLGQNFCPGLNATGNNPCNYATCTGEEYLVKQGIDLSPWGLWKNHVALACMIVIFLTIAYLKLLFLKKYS

[7] = Characterization of resveratrol metabolites in pooled human liver S9 fraction; type: in vitro ADME
[8] = humans; ref [16]; cited from earlier work
[9] = test system: BCRP; settings: oral sulfasalazine, curcumin pretreatment vs none, ref [37]; cited from earlier work
[10] = FVB, mouse, whole blood, po, 20 mg/kg
[11] = WT mice with curcumin vs without, resveratrol 20mg/kg oral
[12] = curcumin 50nM, resveratrol […], 4 h, p<0.01
[13] = curcumin 50nM, resveratrol […], 4 h, p<0.05

Chain of human MRP2 (Q92887 whole entry): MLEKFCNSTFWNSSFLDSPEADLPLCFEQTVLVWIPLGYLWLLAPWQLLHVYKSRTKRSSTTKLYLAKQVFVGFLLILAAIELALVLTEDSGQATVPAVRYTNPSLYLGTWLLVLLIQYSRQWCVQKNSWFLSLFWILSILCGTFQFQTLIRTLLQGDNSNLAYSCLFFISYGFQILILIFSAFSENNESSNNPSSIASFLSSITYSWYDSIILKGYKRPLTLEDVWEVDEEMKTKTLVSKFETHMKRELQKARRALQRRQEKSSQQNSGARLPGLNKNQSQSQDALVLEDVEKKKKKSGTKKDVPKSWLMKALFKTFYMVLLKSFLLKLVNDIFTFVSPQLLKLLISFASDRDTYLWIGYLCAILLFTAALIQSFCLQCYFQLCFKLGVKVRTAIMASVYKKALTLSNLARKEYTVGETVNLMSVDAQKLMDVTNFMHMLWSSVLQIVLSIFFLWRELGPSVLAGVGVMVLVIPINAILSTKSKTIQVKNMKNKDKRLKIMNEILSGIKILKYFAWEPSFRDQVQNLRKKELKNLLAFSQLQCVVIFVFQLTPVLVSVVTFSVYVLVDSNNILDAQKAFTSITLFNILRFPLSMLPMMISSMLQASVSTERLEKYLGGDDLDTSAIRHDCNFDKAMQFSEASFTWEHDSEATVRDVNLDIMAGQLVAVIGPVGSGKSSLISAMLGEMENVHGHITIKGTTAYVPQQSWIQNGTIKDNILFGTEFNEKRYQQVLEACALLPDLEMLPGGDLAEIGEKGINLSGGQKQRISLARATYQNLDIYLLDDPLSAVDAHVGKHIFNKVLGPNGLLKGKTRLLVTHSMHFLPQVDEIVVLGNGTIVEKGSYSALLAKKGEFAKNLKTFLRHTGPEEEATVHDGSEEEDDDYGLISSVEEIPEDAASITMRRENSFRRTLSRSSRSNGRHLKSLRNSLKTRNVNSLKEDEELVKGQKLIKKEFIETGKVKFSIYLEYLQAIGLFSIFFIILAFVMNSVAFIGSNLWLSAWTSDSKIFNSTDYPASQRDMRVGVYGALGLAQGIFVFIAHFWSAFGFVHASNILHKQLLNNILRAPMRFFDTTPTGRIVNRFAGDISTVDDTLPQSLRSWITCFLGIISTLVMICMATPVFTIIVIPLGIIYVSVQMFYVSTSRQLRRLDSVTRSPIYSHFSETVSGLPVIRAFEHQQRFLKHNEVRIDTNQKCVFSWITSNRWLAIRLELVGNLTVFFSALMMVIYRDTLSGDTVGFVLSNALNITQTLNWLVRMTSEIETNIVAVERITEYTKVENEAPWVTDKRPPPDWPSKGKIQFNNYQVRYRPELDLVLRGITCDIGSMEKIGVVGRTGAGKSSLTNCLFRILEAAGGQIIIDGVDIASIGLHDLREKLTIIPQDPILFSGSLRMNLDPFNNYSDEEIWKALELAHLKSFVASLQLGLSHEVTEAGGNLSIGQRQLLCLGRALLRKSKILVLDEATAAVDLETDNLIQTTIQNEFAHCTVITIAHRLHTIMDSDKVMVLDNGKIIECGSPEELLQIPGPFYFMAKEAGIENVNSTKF

Oc1ccc(/C=C/c2cc(O)cc(O)c2)cc1 [Resveratrol, trans-3,5,4′-trihydroxystilbene]
Cmax [1, 10]: 600 ± 260 nM | increase of AUC with curcumin [1, 11]: 2 fold | increase of maximum blood concentration (Cmax) with curcumin [1, 11]: ~100% | Cmax ([2]; Bcrp1 (−/−) with curcumin): 390 ± 170 nM | Cmax ([2]; Bcrp1 (−/−) without curcumin): 790 ± 440 nM | Tmax ([2]; Bcrp1 (−/−) without curcumin): 0.31 ± 0.12 h | change in AUC with curcumin ([2]; curcumin-treated vs curcumin-untreated Bcrp1 (−/−) mice): decreased moderately

O=C(O)[C@H]1O[C@@H](Oc2cc(O)cc(/C=C/c3ccc(O)cc3)c2)[C@H](O)[C@@H](O)[C@@H]1O [R-3-G, resveratrol-3-O-glucuronide]
IC50 of cell growth inhibition compared to parent compound [3]: comparable

COc1cc(/C=C/C(=O)CC(=O)/C=C/c2ccc(O)c(OC)c2)ccc1O [curcumin, diferuoyl methane]
decrease in fmet of RES-4′-O-G ([4]; curcumin 200nM, p<0.05): ~20% | reduction in fmet of RES-3-O-G ([4]; curcumin 200nM, p>0.05): ~12% | decrease in fmet of RES-4′-O-G ([4]; curcumin 500nM, p<0.01): approximately 24% | reduction in fmet of RES-3-O-G ([4]; curcumin 500nM, p<0.05): ~14% | decrease in fmet of RES-4′-O-G ([4]; curcumin 1000nM, p<0.01): about 33% | reduction in fmet of RES-3-O-G ([4]; curcumin 1000nM, p<0.05): approximately 24% | change in fmet values for all metabolites ([4]; lower concentrations of curcumin (100nM, 50nM)): no significant change | reduction of CL of RES-3-O-G ([5]; curcumin 50nM, resveratrol […], 4 h, p<0.001): 46% | reduction of CL of RES-4′-O-G [5, 12]: 50% | reduction of CL of RES-3-O-S [5, 13]: 53% | reduction of CL of RES-4′-O-S [5, 13]: 54% | inhibitory effect on CL at higher concentration ([5]; curcumin 100nM vs 50nM): no greater concentration-dependent inhibitory effect | decrease of CL of RES-3-O-G [6, 12]: 28% | decrease of CL of RES-3-O-S [6, 13]: 35% | inhibitory effect on CL at higher concentration ([6]; curcumin 100nM vs 50nM): no greater extent of inhibitory effect | inhibitory effect on CL of RES-4′-G ([6]; curcumin 100nM, 50nM, resveratrol […], 4 h): did not show any significant inhibitory effect

O=C(O)[C@H]1O[C@@H](Oc2ccc(/C=C/c3cc(O)cc(O)c3)cc2)[C@H](O)[C@@H](O)[C@@H]1O [RES-4′-O-G, resveratrol-4′-O-glucuronide]
amount of metabolite generated relative to the 3-O conjugate [7]: about one fifth | IC50 of cell growth inhibition compared to parent compound [3]: comparable | peak plasma levels relative to that of resveratrol [8]: 3- to 8 fold

O=S(=O)(O)Oc1cc(O)cc(C=Cc2ccc(O)cc2)c1 [R-3-S, resveratrol-3-O-sulfate]
Cmax [1, 10]: 1320 ± 710 nM | Tmax ([1]; FVB, mouse, whole blood, po, 20 mg/kg, Tmax, WT with curcumin, oral resveratrol 20mg/kg): 0.31 ± 0.12 h | half-life ([1]; FVB, mouse, whole blood, po, 20 mg/kg, t1/2, WT control, oral resveratrol 20mg/kg without curcumin): 3.77 ± 1.74 h | half-life ([1]; FVB, mouse, whole blood, po, 20 mg/kg, t1/2, WT with curcumin, oral resveratrol 20mg/kg): 9.32 ± 5.64 h | Cmax ([2]; Bcrp1 (−/−) with curcumin): 1800 ± 170 nM | Cmax ([2]; Bcrp1 (−/−) without curcumin): 2400 ± 980 nM | Tmax ([2]; Bcrp1 (−/−) with curcumin): 0.25 h | Tmax ([2]; Bcrp1 (−/−) without curcumin): 0.25 h | half-life ([2]; t1/2, Bcrp1 (−/−) with curcumin): 5.82 ± 2.55 h | half-life ([2]; t1/2, Bcrp1 (−/−) without curcumin): 4.41 ± 0.44 h | peak plasma levels relative to that of resveratrol [8]: 3- to 8 fold

O=C(O)c1cc(/N=N/c2ccc(S(=O)(=O)Nc3ccccn3)cc2)ccc1O [SASP, sulfasalazine]
plasma level in mice pretreated with curcumin [9]: two folds higher
